Data reported in patent US20250381165A1, “Method of Use for Benzofuran Compounds” (Tampa Bay Research Institute, Inc., priority 2024, published 2025).
Read-outs that look alike come from different tables or passages of the source.

Experiments:
Assay type in all cases: cell-based, murine
[1] = tested on: DC2.4 cells (B3Z activation); experiment: Pathway inhibitor studies in DC2.4/B3Z assay
Method: […]. The cytotoxicity of all inhibitors was assessed using CellTiter96 Aqueous One (Promega (Madison WI, USA); cat. no. G3580).
. The cells were then washed 2× before addition of BzFβ. Cells exposed to the other inhibitors were incubated with an appropriate concentration of each inhibitor, seen in Table 1 in cDMEM at 37° C., 5% CO2. […]. Cells were then incubated for 6 h. Before B3Z addition the inhibitor and BzFβ were removed, and the cells washed with warm DPBS. If testing peptide presentation, the DC2.4 cells were pulsed with 0.5 nM […] for 1 h prior to being cocultured with B3Z.

[2] = tested on: B16F10 cells (B3Z activation); experiment: B3Z activation by B16F10 (OVA or SIINFEKL)
Method: B16F10 were plated at a density of 2.5 or 5×10^4 cells/well (100 μL/well in 96 well plates) and cultured overnight in cDMEM. The cells were washed with DPBS and then treated for 1-24 h with the indicated concentrations of BzFβ or co-treated with the indicated concentrations of BzFβ and 1.0 mg/mL OVA, suspended in complete media. Cells treated with BzFβ only were pulsed with 2 nM SIINFEKL pulsed for 1 h. The cells were then co-cultured with equal number of B3Z cells at 37° C. for 19 h.
In this experiment the activity of the dipeptide, GL, was also examined, as it has been previously reported to function as a peptide exchange factor. (Saini, et al., Dipeptides catalyze rapid peptide exchange on MHC class I molecules. Proc Natl Acad Sci USA. 2015 Jan. 6; 112(1):202-7; Saini, et al., Empty peptide-receptive MHC class I molecules for efficient detection of antigen-specific T cells. Sci Immunol. 2019 Jul. 19; 4(37):eaau9039). B16F10 were plated at a density of 2.5 or 5×10^4 cells/well (100 μL/well in 96 well plates) and cultured overnight in cDMEM. The cells were washed with DPBS and then co-treated for 24 h with 10 mM (1.88 mg/mL) of GL and 1.0 mg/mL OVA or were pulsed with 2 nM SIINFEKL for 1 h following treatment with 10 mM GL in complete media. The cells were then co-cultured with an equal number of B3Z cells at 37° C. for 19 h.

[3] = target: T1, MHCI/SIINFEKL complex on DC2.4 (Mus musculus, UniProt P01901); experiment: Displacement of SIINFEKL from DC2.4 after peptide pulse
T1 construct: DC2.4 are a C57Bl/6 lineage murine cell line and as such they express MHC class I H-2Kb and H-2Db; endogenous in cells; host or cells: DC2.4 (murine dendritic cell line, from Dr. Kenneth Rock)
T1 sequence (P01901 22-369): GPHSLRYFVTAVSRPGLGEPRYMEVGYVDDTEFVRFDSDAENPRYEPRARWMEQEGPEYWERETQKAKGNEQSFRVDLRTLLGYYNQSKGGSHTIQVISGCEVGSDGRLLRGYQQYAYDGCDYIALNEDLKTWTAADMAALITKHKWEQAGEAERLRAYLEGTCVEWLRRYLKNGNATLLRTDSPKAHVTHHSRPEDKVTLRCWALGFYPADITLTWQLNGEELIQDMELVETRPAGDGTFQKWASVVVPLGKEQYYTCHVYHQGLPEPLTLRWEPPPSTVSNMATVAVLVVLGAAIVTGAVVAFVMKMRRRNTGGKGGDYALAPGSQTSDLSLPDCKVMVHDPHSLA
T1 sequence (P01887 21-119 partner): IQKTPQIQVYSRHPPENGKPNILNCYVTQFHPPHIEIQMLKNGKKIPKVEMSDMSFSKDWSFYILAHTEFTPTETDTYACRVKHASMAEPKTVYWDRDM

[4] = tested on: MHC class I H-2Kb on DC2.4; experiment: MHC class I recovery after acid stripping of DC2.4; conditions: 25 μg/mL BzFβ or 5 mM GL during recovery, 4-24 h
Method: To determine if BzFβ affects synthesis or cycling of the MHC class I molecules, the class I molecule/peptide complexes were stripped from the surface of DC2.4 cells using a citric acid buffer, then treated with 25 μg/mL BzFβ, 5 mM of the dipeptide GL, or 3 μg/mL BFA (see Example 4) as a negative control.
An acid wash to strip the cell surface of MHC class I was performed as described with modifications. (Montealegre, et al., Dissociation of β2-microglobulin determines the surface quality control of major histocompatibility complex class I molecules. FASEB. 2015 July; 29(7):2780-8). DC2.4 were incubated overnight at 37° C. at 1×10^5. Cells were washed for 2 min in acidic buffer [(pH 2.5) 465 mM Citric acid, 35 mM sodium citrate, in PBS with 1% v/v FBS] or neutral buffer [(pH 7.4) PBS with 1% v/v FBS]. Afterwards the pH was neutralized by the addition of cDMEM. The cells were washed with PBS and treated with BzFβ or GL in cDMEM for various times to allow for MHC class I recovery at 37° C. Cells were washed and stained with an H-2Kb-specific antibody (Invitrogen, cat. no. 12-5958-82) and analyzed by flow cytometry as described previously
MHC I recovery on the cell surface at various time points was detected by flow cytometry using the PE-labeled MHC class I H-2Kb specific antibody (AF6-88.5.5.3). […] At 6 hours >60% of the MHC class I molecules recovered, seen in FIG. 14.

[5] = target: T2, H-2Kb/SIINFEKL complex on DC2.4 (Mus musculus, UniProt P01901); experiment: BFA decay experiment (SIINFEKL off-rate) on DC2.4; conditions: 24 h pre-treatment, 1 h 30 nM SIINFEKL
T2 construct: DC2.4 are a C57Bl/6 lineage murine cell line and as such they express MHC class I H-2Kb and H-2Db; endogenous in cells; host or cells: DC2.4 (murine dendritic cell line, from Dr. Kenneth Rock)

[6] = tested on: DC2.4 cells presenting SIINFEKL to B3Z CD8+ T cell hybridoma; experiment: B3Z activation by SIINFEKL-pulsed DC2.4 (CPRG β-gal assay); conditions: doses up to 50 μg/mL (265 μM), 0.5 nM SIINFEKL
Method: DC2.4 cells (2.5×10^4 cells/well) were seeded at 100 μL/well in 96 well tissue culture white sided/white bottom plate and incubated overnight to allow for cell adherence. 37° C. in an atmosphere containing 5% CO2 and 95% humidity. Following pre-treatment of the DC2.4 cells (1-24 h) with escalating doses of the test molecules, the cells were washed, pulsed with 0.5 nM of the MHC class I H-2Kb peptide, SIINFEKL, for 1 h, and then co-cultured with the CD8+ T cell hybridoma, B3Z.
The level of B3Z cell activation and the effects of the various test molecules on B3Z activation were quantified in cell lysates using the β-gal chromogenic substrate, CPRG. The media was removed and 100 μL of 250 μM CPRG reconstituted in the lysis buffer (1×DPBS, 0.2% v/v saponin, 20 mM magnesium chloride) was added directly to each well. Cells were maintained at 37° C. prior to measurement. The absorbance at 560 nm (700 nm for background) was intermittently monitored using a BioTek Synergy HTX multimode microplate reader (Winooski, VT) to detect β-gal activity. CPRG lysis buffer and B3Z cells only served as the negative controls. All treatments were performed in triplicate and all experiments were repeated a minimum of three times.
Activation of B3Z T cell hybridoma cells was assessed following their exposure to various MHC class I H-2K^b positive cell lines presenting the SIINFEKL peptide. B3Z are a CD8+ SIINFEKL peptide specific T-cell hybridoma expressing a beta-galactosidase (β-gal) reporter gene driven by NF-AT elements on the interleukin 2 (IL-2) promoter. […] Activation of B3Z leads to production of β-gal whose presence can be quantified using the optimized detection assay described by Jendresen et al. (Jendresen, et al., An improved CPRG colorimetric ligand-receptor signal transduction assay based on beta-galactosidase activity in mammalian BWZ-reporter cells. J Pharmacol Toxicol Methods. 2018 March-April; 90:67-75).
To stimulate β-gal production in the B3Z, the H-2Kb murine cell lines, DC2.4, B16F10, and E.G7-OVA, or freshly isolated murine splenocytes, were plated at a density of 2.5 or 5×10^4 cells/well (100 μL/well in 96 well plates) and cultured overnight at 37° C. in an atmosphere containing 5% CO2 and 95% humidity. The cells were washed with DPBS and then treated for 1-24 h with the indicated concentrations of BzFβ suspended in complete media. Vehicle controls were always included. […]
To detect activation of the B3Z cells, the media was removed and 100 μL of 250 µM CPRG reconstituted in the lysis buffer (1×DPBS, 0.2% v/v saponin, 20 mM magnesium chloride) was added directly to each well. […] The absorbance at 560 nm (700 nm for background) was intermittently monitored using a BioTek Synergy HTX multimode microplate reader (Winooski, VT) to detect β-gal activity. […]

[7] = DC2.4 pulsed with SIINFEKL, data not shown
[8] = DC2.4 pulsed with […], data not shown

Cn1cnc(N)c2ncnc1-2 [3-methyladenine, 3-Methyladenine]
inhibition of BzFβ enhancement of B3Z activation [1, 7]: failed to inhibit

C[C@H]1CCC/C=C/[C@@H]2C[C@H](O)C[C@H]2[C@H](O)/C=C/C(=O)O1 [BFA, Brefeldin A]
effect of BFA on B3Z activation with OVA as antigen source ([1]; DC2.4, 3 μg/mL BFA 1 h pretreatment, 0.5 mg/mL OVA): significantly suppressed

CO/C1=C\C(C)=C\[C@@H](C)[C@@H](O)[C@@H](C)C/C(C)=C/C=C/[C@H](OC)[C@@H]([C@@H](C)[C@@H](O)[C@H](C)[C@@]2(O)C[C@@H](O)[C@H](C)[C@@H](C(C)C)O2)OC1=O [Bafilomycin A1]
inhibition of BzFβ enhancement of B3Z activation [1, 8]: failed to inhibit

CC(C)CC(NC(=O)CN)C(=O)O (stereo not drawn) [GL, Glycine-leucine dipeptide, reference compound]
B3Z activation by B16F10, OVA ([2]; co-treatment with 1 mg/mL OVA, GL at 10 mM): no effect on the uptake or processing of OVA | B3Z activation by B16F10, SIINFEKL ([2]; pre-treatment, 1 h pulse 2 nM SIINFEKL, BzFβ 25, 50 μg, GL 10 mM): significantly enhance B3Z activation | MHCI/SIINFEKL complex staining versus untreated cells ([3]; 5 mM GL after 1 h pulse 30 nM SIINFEKL, p=0.0027): significantly reduced | concentration of dipeptides required relative to BzFβ ([3]; displace or enhance peptide binding): 3 fold | MHC class I recovery after acid stripping [4]: no increase in MHC class I production | decay rate of SIINFEKL / stability of H-2Kb/SIINFEKL complex [5]: no increase in overall stability

CCN(CC)CCCC(C)Nc1ccnc2cc(Cl)ccc12 (stereo not drawn) [chloroquine, Chloroquine]
inhibition of BzFβ enhancement of B3Z activation [1]: failed to inhibit

C[C@@H]1C[C@@H]([C@H](O)CC2CC(=O)NC(=O)C2)C(=O)[C@@H](C)C1 [cycloheximide, Cycloheximide]
inhibition of BzFβ enhancement of B3Z activation [1, 8]: failed to inhibit

C=C1[C@@H](C)[C@H]2[C@H](Cc3ccccc3)NC(=O)[C@]23[C@H](OC(C)=O)/C=C/[C@@](C)(O)C(=O)[C@@H](C)C/C=C/[C@H]3[C@@H]1O [cytochalasin D, Cytochalasin D]
inhibition of BzFβ enhancement of B3Z activation [1, 8]: failed to inhibit

COc1cccc2c1C(=O)c1c(O)c3c(c(O)c1C2=O)C[C@@](O)(C(=O)CO)C[C@@H]3O[C@H]1C[C@H](N)[C@H](O)[C@H](C)O1 [doxorubicin, Doxorubicin]
inhibition of BzFβ enhancement of B3Z activation [1, 7]: failed to inhibit

O=C(O)C=Cc1ccc2c(c1)CCO2 [molecule #2, 3-(2,3-dihydro-1-benzofuran-5-yl)acrylic acid]
B3Z activation by analog-treated DC2.4 [6]: failed to evoke activation of the B3Z response

O=C(O)/C=C/c1ccc2c(c1)OCO2 [molecule #4, (2E)-3-(1,3-benzodioxol-5yl)acrylic acid]
B3Z activation by analog-treated DC2.4 [6]: failed to evoke activation of the B3Z response
